Data from patent US9889135B2, “Companion diagnostic for CDK4 inhibitors” (Memorial Sloan-Kettering Cancer Center, priority 2013, dated 2018).
Peptide text beside a SMILES is read from it. * marks the point of attachment. Cbz = O=C(OCc1ccccc1)*

Legend:
[1] = tested on: MDM2 in LS8817 and LS141 cells; test: MDM2 level after proteasome inhibition in PD0332991 treated cells; assay type: cell-based, human; details: 10 μM MG132 added to cells treated with PD0332991 for two days
LS8817 cells = test: doxorubicin effect on LS8817 cells; assay type: cell-based, human
WD/DDLS cell lines = test: annexin V staining (apoptosis); assay type: cell-based, human; details: nutlin-3a, forty-eight hours; LS8817, LS0082, LS8107 and LS7785-1
Protocol: FIG. 1A-C. […] Mean percentage of BrdU incorporation or annexin V+/7-AAD− cells was calculated from three or more independent experiments. Error bars represent standard deviation (*p<0.05).
(§1) FIG. 13A-B. Nutlin-3a induces apoptosis in all the liposarcoma cell lines. The indicated cell lines were treated with nutlin-3a or vehicle control and extracts were prepared for immunoblotting (A) or annexin V staining (B) forty-eight hours after treatment. Mean percentage of annexin V+/7-AAD− cells was calculated from three or more independent experiments. Error bars represent standard deviation (*p<0.05).
Cells were stained with BrdU (20 μM for two hours) or annexin V as previously described (22, 48). […] was determined by staining with propidium iodine and FACS analyses (49).

[2] = tested on: MDM2 and p21 in LS8817, LS0082, LS8107 and LS7785-1 cells; test: p53 targets by immunoblot after nutlin-3a; assay type: cell-based, human; details: forty-eight hours; all of the cell lines
Protocol: as §1, with “The” for “FIG. 13A-B. Nutlin-3a induces apoptosis in all the liposarcoma cell lines. The”

WD/DDLS cells = details: Ambrosini et al., 2007, Singer et al.; cited from earlier work

## CC(C)C[C@@H](C=O)NC(=O)[C@H](CC(C)C)NC(=O)[C@H](CC(C)C)NC(=O)OCc1ccccc1 [MG132] (Cbz-Leu-Leu-Leu-aldehyde)
[1]
  MDM2 level after addition of MG132: re-accumulation

## COc1cccc2c1C(=O)c1c(O)c3c(c(O)c1C2=O)C[C@@](O)(C(=O)CO)C[C@@H]3O[C@H]1C[C@H](N)[C@H](O)[C@H](C)O1 [doxorubicin]
LS8817 cells
  MDM2 levels: without a reduction
  p53: accumulation
  senescence: entry of the LS8817 cells into senescence

## COc1ccc(C2=N[C@@H](c3ccc(Cl)cc3)[C@@H](c3ccc(Cl)cc3)N2C(=O)N2CCNC(=O)C2)c(OC(C)C)c1 [nutlin-3a]
WD/DDLS cell lines
  percentage of annexin V stained apoptotic cells: increased
[2]
  p53 targets, MDM2 and p21: increased
WD/DDLS cells
  cell response to nutlin-3a: growth arrest, p53 accumulation and apoptosis
